From patent US6660757B2, “Use of riluzole in the treating acoustic traumas” (Aventis Pharmaceuticals Inc., priority 1998, dated 2003)

Experiments:
[1] = tested on: compound action potential (CAP) of the auditory nerve; experiment: acute perifusion of the cochleae: effect of increasing doses on cochlear potentials (CAP); assay type: in vivo, guinea pigs
Text: The effect of riluzole in increasing doses was studied according to the technique of acute perifusion of the cochleae:
10 tricolor guinea pigs weighing 200 to 400 g are anesthetized by intraperitoneal injection of urethane (1.4 g/kg) and then trachetomized and artificially ventilated. The external auditory canals are incised for the putting in place of ear bars in a restraining apparatus. During the entire duration of the experiment, the electrocardiogram is monitored and the central temperature regulated by means of a heating cover at 38.5±1° C. The experiments are carried out in a soundproofed, anechoic and faradized chamber. Access to the cochlea is obtained via a ventral approach. After opening of the tympanic bulla, 3 holes 0.2 mm in diameter are manually cut in the basal turn of the cochlea: the first in the tympanic ramp to receive an infusion pipette, the second in the vestibular ramp to allow the outflow of the infused solutions out of the cochlea and the third also in the vestibular ramp to receive a recording electrode.
The cochlear potentials recorded in the vestibular ramp are stored and then numerically filtered to dissociate the compound action potential (CAP), a control for the activity of the auditory nerve and the receptor potentials obtained from the ciliated cells, namely the microphonic potential (MP) and the summation potential (SP). A low-pass filter of 2.5 kHz is used to extract the CAP whose amplitude is measured between N1 (1st negative wave) and P1 (1st positive wave) as well as the SP measured between 0 and 5 ms. A band-pass filter around 8 kHz (acoustic stimulation frequency) is used to extract the MP (6-10 kHz, filter slope: 48 db/octave).
After introducing the pipette (about 0.1 mm in diameter at the tip) into the tympanic ramp with the aid of a micromanipulator, leaktightness being provided by means of a glue ball placed near the tip, artificial perilymph is infused at the rate of 2.5 μl/min. A second infusion of artificial perilymph containing 0.1% dimethyl sulfoxide is carried out. […] These cochlear potentials are recorded immediately after each infusion. The duration of the infusions is 10 minutes.
The IC50 is observed for a dose of 300 μM (FIG. 2). In all the animals, a complete disappearance of the CAP is obtained for a dose of 500 μM.

[2] = tested on: acoustic trauma; experiment: protective effect on acoustic trauma (sound overstimulation 6 kHz, 130 dB SPL, 15 minutes); assay type: in vivo, guinea pigs; conditions: 500 μM in perilymph
Description: The protective effect on acoustic trauma was tested on 10 animals for which a preliminary infusion of artificial perilymph is carried out for 10 minutes. After evaluation of the audiometric thresholds, a second 35 minute infusion either of artificial perilymph alone (5 animals: control group) or of perilymph containing 500 μM riluzole (5 animals) is carried out. Ten minutes after the start of the second infusion, a sound overstimulation (6 kHz, 130 dB SPL) is applied for 15 minutes. Finally, a third infusion of artificial perilymph allows rinsing of the cochlea. The audiometric thresholds are then recorded. The auditory loss for each frequency induced by sound exposure is defined as the difference between the audiometric thresholds recorded before and after the sound over-exposure.

[3] = cumulative increasing doses 50 to 500 μM, intracochlear infusion

Nc1nc2ccc(OC(F)(F)F)cc2s1 [riluzole, 2-amino-6-trifluoromethoxy-benzothiazole]
IC50 ([1]; Cavia porcellus, 10 min, intracochlear infusion of cumulative increasing doses 50 to 500 μM in artificial perilymph with 0.1% dimethyl sulfoxide, 10 minutes each, read-out: IC50 for reduction of the amplitude of the compound action potential (CAP)): 300 µM | effect on CAP of the auditory nerve [1, 3]: reduction in the compound action potential (CAP) of the auditory nerve dependant on the dose | effect on latency N1 of the CAP [1, 3]: increase in the latency N1 | dose for complete disappearance of the CAP ([1]; intracochlear infusion, in all the animals): 500 µM | auditory losses after sound overstimulation versus control group ([2]; 35 minute infusion, frequencies of between 8 and 16 kHz): control group exhibits, for frequencies of between 8 and 16 kHz, much higher auditory losses | histological study of the cochleae by electron microscopy: innervation ([2]; after sound overstimulation): virtually normal innervation
